Results published in PMC12689952 (Frontiers in Pharmacology, 2025).
Read-outs that look alike come from different tables or passages of the source.

Tests used:
Sprague Dawley rats [1] = assay: Forced swimming test (FST) after intranasal administration; type: in vivo, rat; conditions: for Climbing / Immobility / Swimming: mean ± SEM
Protocol: (§1) Male Sprague Dawley rats (body weight 200–225 g) were obtained from Charles River (Barcelona, Spain) and maintained in a humidity-controlled and temperature-controlled (20 °C–22 °C) room. Rats were maintained during the alcohol protocol on a 12-h reversed light/dark cycle (lights off at 9 a.m.). All animal experimentation was conducted in accordance with the University of Málaga Guidelines for the Care and Use of Laboratory Animals (Ethic Code: 22/05/2017/066).
(§2) Animals were preacclimated to the procedure and handled daily for 3 days to reduce stress. Rats were administered under light anaesthesia with isoflurane (3%–4% for induction and 1.5%–2% for maintenance) for approximately 2–3 min, sufficient to prevent movement during intranasal administration. A single intranasal infusion of GAL (1–15) (TOCRIS, Bristol, United Kingdom, molecular weight = 1557 g/mol) was administered at doses of 37.5 μg, 75 μg, 150 μg, or 300 μg, equivalent to those used with other peptides ([Serova et al., 2013]; [Serova et al., 2019]). Doses were dissolved in 20 μL of distilled water, with 10 μL administered into each nostril using a disposable plastic-tipped pipette, without inserting deeply, 30 min or 1 h before behavioral testing, as described previously ([Serova et al., 2013]; [Serova et al., 2019]). Care was taken to avoid contact with the intranasal mucosa. After intranasal administration, the animal’s head was held back for approximately 15 s to prevent loss of solution from the nostrils. Animals returned to normal behavior within 1–2 min, and no subjects needed to be withdrawn due to intolerance.
Depressive behavior was assessed using the FST, as described previously ([Millón et al., 2014]; [Cantero-García et al., 2022b]). Briefly, two swimming sessions were conducted: a 15-min pretest followed 24 h later by a 5-min test. Animals were individually placed in a vertical glass cylinder of 20 cm diameter containing water (25 °C) to a height of 30 cm. Immobility, swimming and climbing behaviors were evaluated and recorded during the second 5-min test. Behavioral scoring was conducted by a blinded experimenter using coded videos to ensure objectivity.
Two experiments were conducted in the FST (Figure 1A). A dose-response curve of GAL (1–15) was performed in the first set of experiments. For this, groups of rats received GAL (1–15) intranasally 37.5 μg (n = 6), 75 μg (n = 6), 150 μg (n = 6) or 300 μg (n = 6) or distilled water (n = 12) 30 min before the test. The effects in the FST of GAL (1–15) intranasally at 1 h were studied in the second set of experiments. For this, groups of rats received GAL (1–15) intranasal 37.5 μg (n = 8), 75 μg (n = 8) or distilled water (n = 4–5) 1 h before the test. Animals were randomly assigned to treatment groups.

Sprague Dawley rats [2] = assay: Operant alcohol self-administration test after intranasal administration; type: in vivo, rat; conditions: 75 μg intranasal, 1 h before test
Protocol: as §1, §2
Training and testing were conducted in standard operant chambers (Panlab, Barcelona, Spain). Each chamber (250 mm W × 250 mm D × 250 mm H) was equipped with a drinking reservoir positioned 4 cm above the grid floor in the center of the front panel of the chamber, and two retractable levers were located 3 cm to right an left of the dinking receptacle. Each reservoir was calibrated to dispense 0.1 mL when the fixed ratio of lever presses was obtained. Chambers were connected to a computer running Packwin Sofware (2.0, Panlab, Barcelona, Spain).
Alcohol consumption was assessed using the previous self-administration test ([Cantero-García et al., 2022a]; [Cantero-García et al., 2022b]; [Lebourgeois et al., 2018]) (Figure 1B). Briefly, rats were exposed to intermittent consumption of 0.2% saccharin and 10% alcohol for 3 weeks. After that, rats were placed on a water restriction schedule for 2–4 days to facilitate training in lever pressing. […]

hERG potassium channel = hERG potassium channel (Homo sapiens, UniProt Q12809); assay: hERG inhibition, FluxOR potassium assay in hERG-expressing HEK293 cells
Chain of hERG potassium channel (Q12809 whole entry): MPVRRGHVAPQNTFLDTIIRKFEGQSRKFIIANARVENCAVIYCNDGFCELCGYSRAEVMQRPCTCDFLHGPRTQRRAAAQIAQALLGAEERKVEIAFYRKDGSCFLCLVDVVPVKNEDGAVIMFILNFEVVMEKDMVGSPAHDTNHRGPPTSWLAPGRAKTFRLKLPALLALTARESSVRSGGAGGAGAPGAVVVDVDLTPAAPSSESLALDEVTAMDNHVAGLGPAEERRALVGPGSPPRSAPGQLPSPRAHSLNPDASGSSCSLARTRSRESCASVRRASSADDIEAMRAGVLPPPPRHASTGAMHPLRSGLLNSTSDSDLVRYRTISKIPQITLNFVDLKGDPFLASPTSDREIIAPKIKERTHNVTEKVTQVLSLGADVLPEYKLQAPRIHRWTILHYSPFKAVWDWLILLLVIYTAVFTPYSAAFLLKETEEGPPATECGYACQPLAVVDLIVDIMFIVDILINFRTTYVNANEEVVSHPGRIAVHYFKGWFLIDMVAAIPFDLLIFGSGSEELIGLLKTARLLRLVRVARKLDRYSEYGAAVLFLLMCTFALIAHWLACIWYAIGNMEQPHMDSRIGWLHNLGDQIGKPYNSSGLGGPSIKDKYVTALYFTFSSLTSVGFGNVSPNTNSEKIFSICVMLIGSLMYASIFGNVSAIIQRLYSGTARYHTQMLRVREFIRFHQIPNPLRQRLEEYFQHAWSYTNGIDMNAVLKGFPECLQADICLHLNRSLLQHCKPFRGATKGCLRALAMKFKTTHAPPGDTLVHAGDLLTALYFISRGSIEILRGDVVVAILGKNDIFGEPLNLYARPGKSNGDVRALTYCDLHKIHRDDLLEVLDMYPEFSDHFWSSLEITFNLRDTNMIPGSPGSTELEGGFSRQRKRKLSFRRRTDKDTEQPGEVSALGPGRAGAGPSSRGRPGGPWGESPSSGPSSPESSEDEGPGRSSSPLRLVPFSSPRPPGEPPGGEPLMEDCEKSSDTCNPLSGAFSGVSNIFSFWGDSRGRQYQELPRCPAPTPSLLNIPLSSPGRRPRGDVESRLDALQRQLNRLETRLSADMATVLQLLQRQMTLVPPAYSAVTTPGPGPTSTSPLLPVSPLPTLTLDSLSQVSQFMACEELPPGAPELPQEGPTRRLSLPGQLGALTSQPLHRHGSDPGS
Protocol: Cardiotoxicity of GAL (1–15) was assessed in hERG-expressing HEK cells using the FluxOR™ potassium assay (Invitrogen) on a FLIPR TETRA system. Cells were preloaded with FluxOR™ dye, followed by incubation with GAL (1–15) in a 10-point half-log dose-response curve (max concentration: 50 µM). After a 30-min equilibration, the thallium stimulation buffer was injected to measure potassium flux kinetics. […] Data were analyzed using Genedata Screener software, with IC50 values determined via the Hill model ([Annang et al., 2021]; [Lee et al., 2019]).

CHO cells = conditions: 24 h
Protocol: The study followed OECD Test Guideline 487 for micronucleus assessment in rodent CHO cells (ECACC ref: 85050302). Cells were seeded at 2,000/well in 96-well plates and incubated at 37 °C with 5% CO2. GAL (1–15) (2.52 mM stock) was tested at concentrations ranging from 3.12 to 50 μM for 24 h in six replicates. […] After treatment, cytochalasin B was added for 28 h to block cytokinesis, followed by fixation and Hoechst staining. Imaging was performed using the Operetta CLS High-Content Analysis System, and analysis was conducted with Harmony software and the in-house NucleusFinder App (ImageJ-based). NucleusFinder identified valid micronuclei under stringent criteria, excluding irregular structures ([Durcik et al., 2023]). The cytokinesis-block proliferation index (CBPI) was calculated to assess cytostatic effects, ensuring cytostasis remained below 60% to avoid secondary micronuclei induction due to cytotoxicity. Cytostasis was calculated as follows: %cytostasis = 100–100 [(CBPIT-1)/(CBPIC-1)] where T is the test compound treatment culture, C is the vehicle control culture, and CBPI = {(No. mononucleate cells) + (2 × No. binucleate cells) + (3 × No. multinucleate cells)}/(total number of cells).

CYP3A4 = molecular target: T1, CYP3A4 (Homo sapiens, UniProt P08684); assay: Cytochrome P450 inhibition assay in human liver microsomes (testosterone substrate); type: in vitro ADME
T1 construct: Following the addition of human liver microsomes (HLM) and specific substrates; from tissue; host or cells: human liver microsomes
T1 sequence (P08684 whole entry): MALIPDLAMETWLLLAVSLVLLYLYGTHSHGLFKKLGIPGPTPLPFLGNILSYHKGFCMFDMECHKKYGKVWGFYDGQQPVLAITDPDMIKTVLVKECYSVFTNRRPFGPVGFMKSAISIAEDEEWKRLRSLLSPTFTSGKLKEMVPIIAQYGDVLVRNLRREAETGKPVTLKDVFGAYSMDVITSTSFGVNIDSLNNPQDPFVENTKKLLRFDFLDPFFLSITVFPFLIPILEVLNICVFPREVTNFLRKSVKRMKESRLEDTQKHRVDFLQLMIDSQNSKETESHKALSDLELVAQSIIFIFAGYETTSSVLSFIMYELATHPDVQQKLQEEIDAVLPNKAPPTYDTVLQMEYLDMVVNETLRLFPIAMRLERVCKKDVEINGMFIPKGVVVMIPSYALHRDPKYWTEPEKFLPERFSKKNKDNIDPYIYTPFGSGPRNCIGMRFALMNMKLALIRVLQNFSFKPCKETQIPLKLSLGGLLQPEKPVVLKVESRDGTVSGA
Protocol: (§3) The Cytochrome P450 (CYP450) inhibition assay was performed to assess GAL (1–15) using substrates specific for the CYP3A4, CYP2D6, and CYP2C9 isoforms. […] Following the addition of human liver microsomes (HLM) and specific substrates (testosterone for CYP3A4, dextromethorphan for CYP2D6, diclofenac for CYP2C9), reactions were incubated with shaking at 180 Hz (CYP3A4: 15 min; CYP2D6: 30 min; CYP2C9: 45 min). […] Reactions were quenched with acetonitrile, centrifuged, and analyzed using LC-MS/MS with a triple quadrupole mass spectrometer (AB SCIEX API4000) coupled to an Agilent 1290 HPLC system ([Fowler et al., 2022]). Data were processed using Genedata Screener software to calculate IC50 values.

CYP2D6 = CYP2D6 (Homo sapiens, UniProt P10635); assay: Cytochrome P450 inhibition assay in human liver microsomes (dextromethorphan substrate)
Chain of CYP2D6 (P10635 whole entry): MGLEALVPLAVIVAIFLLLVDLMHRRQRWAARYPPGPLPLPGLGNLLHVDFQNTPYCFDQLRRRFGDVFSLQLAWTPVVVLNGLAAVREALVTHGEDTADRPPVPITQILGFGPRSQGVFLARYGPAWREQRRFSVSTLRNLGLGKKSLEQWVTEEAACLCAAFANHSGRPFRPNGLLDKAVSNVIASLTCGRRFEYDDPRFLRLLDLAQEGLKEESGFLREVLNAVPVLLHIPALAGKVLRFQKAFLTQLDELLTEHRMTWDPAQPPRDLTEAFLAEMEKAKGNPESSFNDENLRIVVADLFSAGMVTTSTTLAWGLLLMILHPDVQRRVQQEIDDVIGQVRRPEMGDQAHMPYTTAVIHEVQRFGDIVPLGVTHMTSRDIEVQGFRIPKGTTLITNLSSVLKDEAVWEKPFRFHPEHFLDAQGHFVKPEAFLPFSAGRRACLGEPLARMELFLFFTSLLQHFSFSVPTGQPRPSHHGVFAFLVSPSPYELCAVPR
Protocol: as §3

CYP2C9 = CYP2C9 (Homo sapiens, UniProt P11712); assay: Cytochrome P450 inhibition assay in human liver microsomes (diclofenac substrate)
Chain of CYP2C9 (P11712 whole entry): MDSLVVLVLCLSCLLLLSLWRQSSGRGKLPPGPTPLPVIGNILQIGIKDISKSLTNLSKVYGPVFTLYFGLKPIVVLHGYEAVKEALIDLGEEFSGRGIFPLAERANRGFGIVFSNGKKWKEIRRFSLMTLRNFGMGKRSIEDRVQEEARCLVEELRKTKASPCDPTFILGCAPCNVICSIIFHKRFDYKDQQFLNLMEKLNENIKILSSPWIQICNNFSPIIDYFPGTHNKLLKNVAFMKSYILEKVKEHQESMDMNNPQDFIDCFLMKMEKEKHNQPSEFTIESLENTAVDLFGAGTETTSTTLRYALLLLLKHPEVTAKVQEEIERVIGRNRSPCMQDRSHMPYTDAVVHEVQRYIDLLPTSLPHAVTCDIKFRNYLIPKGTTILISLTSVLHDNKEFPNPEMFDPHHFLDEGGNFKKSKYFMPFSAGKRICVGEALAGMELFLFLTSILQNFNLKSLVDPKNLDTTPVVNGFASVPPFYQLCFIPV
Protocol: as §3

rats [3] = system: rats; design: method as in Millón, 2014; conditions: 3 nmol intracerebroventricular; ref Millón, 2014; cited from earlier work
rats [4] = system: rats; design: method as in Cantero-García et al., 2022a; conditions: 3 nmol intracerebroventricular; ref Cantero-García et al., 2022a; cited from earlier work
rats [5] = system: rats; design: method as in Millón et al., 2019b; conditions: voluntary intake model; ref Millón et al., 2019b; cited from earlier work
[6] = 37.5 μg intranasal, 1 h before test
[7] = 75 μg intranasal, 1 h before test, p < 0.05 vs control
[8] = 150 μg intranasal, 30 min before test, p < 0.05
[9] = 300 μg intranasal, 30 min before test, p < 0.05

Structure (SMILES): CC(C)C[C@H](NC(=O)[C@H](CC(C)C)NC(=O)[C@H](Cc1ccc(O)cc1)NC(=O)CNC(=O)[C@H](C)NC(=O)[C@H](CO)NC(=O)[C@H](CC(N)=O)NC(=O)[C@H](CC(C)C)NC(=O)[C@@H](NC(=O)[C@H](Cc1c[nH]c2ccccc12)NC(=O)CN)[C@@H](C)O)C(=O)NCC(=O)N1CCC[C@H]1C(=O)N[C@@H](Cc1cnc[nH]1)C(=O)N[C@@H](C)C(=O)O [GAL (1–15), Galanin (1–15)]
- Behavioral effects in the FST (Sprague Dawley rats [1]; 37.5 μg intranasal, 30 min before test): did not produce significant behavioral effects
- Immobility, swimming, or climbing behaviors in FST vs control (Sprague Dawley rats [1]; [6]): no significant alterations
- Climbing (Sprague Dawley rats [1]; [6]): 109.6 ± 16.26 s
- Immobility (Sprague Dawley rats [1]; [6]): 59.10 ± 23.04 s
- Swimming (Sprague Dawley rats [1]; [6]): 97.75 ± 16.01 s
- Immobility time in FST vs control (Sprague Dawley rats [1]; 75 μg intranasal, 30 min before test, p < 0.001): significant increase in immobility time
- Swimming time in FST vs control (Sprague Dawley rats [1]; 75 μg intranasal, 30 min before test, p < 0.01): significantly decreased swimming time
- Swimming (Sprague Dawley rats [1]; 75 μg intranasal, 1 h before test): 104.9 ± 15.86 s
- Climbing (Sprague Dawley rats [1]; [7]): 62.96 ± 6.47 s
- Immobility (Sprague Dawley rats [1]; [7]): 98.57 ± 18.74 s
- Immobility time in FST vs control (Sprague Dawley rats [1]; 75 μg intranasal, 1 h before test, p < 0.05): increasing immobility time
- Climbing time in FST vs control (Sprague Dawley rats [1]; 75 μg intranasal, 1 h before test, p ≤ 0.05): reducing climbing time
- Immobility in FST vs control (Sprague Dawley rats [1]; [8]): significant increase in immobility
- Swimming time in FST vs control (Sprague Dawley rats [1]; [8]): reduction in swimming time
- Immobility in FST vs control (Sprague Dawley rats [1]; [9]): significant increase in immobility
- Swimming time in FST vs control (Sprague Dawley rats [1]; [9]): reduction in swimming time
- Climbing time in FST (Sprague Dawley rats [1]; any of the tested doses (37.5-300 μg) intranasal, 30 min before test): No effects were observed
- Total number of inactive lever presses vs control (Sprague Dawley rats [2]): did not significantly differ
- Active lever presses vs control (Sprague Dawley rats [2]; 30-min session, p < 0.01): significantly reduced
- Number of alcohol reinforcements vs control (Sprague Dawley rats [2]; 30-min session, p < 0.01): marked decrease
- Inactive lever presses (Sprague Dawley rats [2]; mean ± SEM): 0.2 ± 0.1
- IC50 (hERG potassium channel; Cardiotoxicity classification from hERG IC50, FluxOR potassium assay, HEK293-hERG): > 10 µM
- IC50 (hERG potassium channel; hERG IC50, HEK293 cells stably expressing hERG, FluxOR potassium assay, n = 3): 20.9 µM
- % Cytostasis (CHO cells; 3.125 µM): 0%
- % MN (CHO cells; 3.125 µM): 8.39%
- No. binucleate cells (CHO cells; 3.125 µM): 3,324
- No. of binucleated cells with MN (CHO cells; 3.125 µM): 278
- % Cytostasis (CHO cells; 6.25 µM): 0%
- % MN (CHO cells; 6.25 µM): 8.28%
- No. binucleate cells (CHO cells; 6.25 µM): 3,210
- No. of binucleated cells with MN (CHO cells; 6.25 µM): 265
- % Cytostasis (CHO cells; 12.5 µM): 0%
- % MN (CHO cells; 12.5 µM): 8.53%
- No. binucleate cells (CHO cells; 12.5 µM): 3,209
- No. of binucleated cells with MN (CHO cells; 12.5 µM): 273
- % Cytostasis (CHO cells; 25 µM): 0%
- % MN (CHO cells; 25 µM): 8.70%
- No. binucleate cells (CHO cells; 25 µM): 3,135
- No. of binucleated cells with MN (CHO cells; 25 µM): 272
- % Cytostasis (CHO cells; 50 µM): 0.1%
- % MN (CHO cells; 50 µM): 7.94%
- No. binucleate cells (CHO cells; 50 µM): 3,108
- No. of binucleated cells with MN (CHO cells; 50 µM): 246
- Micronucleus formation (CHO cells; any tested concentration, highest 50 μM): did not induce micronucleus formation
- CYP3A4 inhibitory potency class (CYP3A4): weak (weak inhibitors (IC50 > 10 μM))
- IC50 at 15 min (CYP3A4; pH 7.4, testosterone substrate, N = 3, read-out: CYP3A4 IC50 [lower and upper 95%]): > 23 µM
- IC50 (CYP3A4; testosterone substrate, N = 3, read-out: CYP3A4 IC50 [lower and upper 95%]): > 26 µM
- IC50 (CYP2D6): > 26 µM
- CYP2D6 inhibitory potency class (CYP2D6; human liver microsomes): weak (weak inhibitors (IC50 > 10 μM))
- IC50 at 30 min (CYP2D6; human, microsomes, pH 7.4): > 23 µM
- IC50 (CYP2C9): > 26 µM
- CYP2C9 inhibitory potency class (CYP2C9; human liver microsomes): weak (weak inhibitors (IC50 > 10 μM))
- IC50 at 45 min (CYP2C9; human, microsomes, pH 7.4): > 23 µM
- Decrease in climbing behavior in FST (rats [3]): 46%
- Increase in immobility in FST (rats [3]): 44%
- Number of alcohol reinforcements (rats [4]): significantly reduced
- Decrease in alcohol preference and consumption (rats [5]): 90%
